{
  "source": "ChEMBL document CHEMBL3421577",
  "about": "“Discovery and biological evaluation of tetrahydrothieno[2,3-c]pyridine derivatives as selective metabotropic glutamate receptor 1 antagonists for the potential treatment of neuropathic pain” (Eur J Med Chem, 2015)",
  "key": {"[1]": {"assay": "Ratio of drug level in brain to plasma in Sprague-Dawley rat at 10 mg/kg, iv measured at 2 hrs by LC-MS/MS analysis", "format": "ADME, organism-based", "set-up": "dose 10 mg/kg, route intravenous", "conditions": "read-out: BPR"}, "[2]": {"target": "Metabotropic glutamate receptor 2 (Homo sapiens) (UniProt Q14416)", "assay": "Antagonist activity at mGlu2 receptor (unknown origin) at 10 uM relative to control"}, "[3]": {"target": "T1, Metabotropic glutamate receptor 1 (Homo sapiens, UniProt Q13255)", "assay": "Antagonist activity at human mGluR1 expressed in human Chem-3 cells assessed as inhibition of L-glutamate-induced calcium release by calcium-5 reagent-based fluorescence assay", "format": "functional, cell-based"}, "[4]": {"target": "C-C chemokine receptor type 2 (Homo sapiens) (UniProt P41597)", "sequence (P41597 whole entry, looked up)": "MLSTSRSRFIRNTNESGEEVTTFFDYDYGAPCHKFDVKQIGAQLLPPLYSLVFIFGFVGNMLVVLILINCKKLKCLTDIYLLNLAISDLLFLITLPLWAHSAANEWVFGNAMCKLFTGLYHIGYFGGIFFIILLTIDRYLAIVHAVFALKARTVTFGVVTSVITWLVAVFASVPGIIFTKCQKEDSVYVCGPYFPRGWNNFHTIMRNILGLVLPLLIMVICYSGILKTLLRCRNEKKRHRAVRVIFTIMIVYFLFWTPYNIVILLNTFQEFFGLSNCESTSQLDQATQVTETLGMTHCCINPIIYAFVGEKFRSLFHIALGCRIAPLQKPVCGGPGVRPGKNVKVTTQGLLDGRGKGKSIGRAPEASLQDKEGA", "assay": "Agonist activity at CCR2B (unknown origin) at 12.5 uM relative to control"}, "[5]": {"target": "Muscarinic acetylcholine receptor M5 (Homo sapiens) (UniProt P08912)", "sequence (P08912 whole entry)": "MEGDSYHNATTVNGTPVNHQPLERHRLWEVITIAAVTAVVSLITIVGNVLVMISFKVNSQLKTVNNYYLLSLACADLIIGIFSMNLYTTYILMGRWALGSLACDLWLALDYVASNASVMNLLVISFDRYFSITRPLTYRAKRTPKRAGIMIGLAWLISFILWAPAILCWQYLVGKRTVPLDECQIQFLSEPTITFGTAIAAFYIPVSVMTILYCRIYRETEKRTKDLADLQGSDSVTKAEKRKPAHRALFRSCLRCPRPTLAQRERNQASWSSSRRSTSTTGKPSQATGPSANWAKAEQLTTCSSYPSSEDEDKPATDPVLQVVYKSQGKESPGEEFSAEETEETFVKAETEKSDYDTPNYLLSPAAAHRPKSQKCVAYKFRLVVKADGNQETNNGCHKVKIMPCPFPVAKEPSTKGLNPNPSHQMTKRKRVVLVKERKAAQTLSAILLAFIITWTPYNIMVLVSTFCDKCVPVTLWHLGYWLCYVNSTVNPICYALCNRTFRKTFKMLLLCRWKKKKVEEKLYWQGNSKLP", "assay": "Agonist activity at M5 receptor (unknown origin) at 12.5 uM relative to control"}, "[6]": {"assay": "Terminal half life in Sprague-Dawley rat at 10 mg/kg, po by LC-MS/MS analysis", "format": "ADME, organism-based", "set-up": "dose 10 mg/kg, route oral", "conditions": "in vivo, read-out: beta t1/2"}, "[7]": {"target": "Muscarinic acetylcholine receptor M5 (Homo sapiens) (UniProt P08912)", "assay": "Antagonist activity at M5 receptor (unknown origin) at 10 uM relative to control"}, "[8]": {"assay": "Mean residence time in Sprague-Dawley rat at 10 mg/kg, iv by LC-MS/MS analysis", "format": "ADME, organism-based", "set-up": "dose 10 mg/kg, route intravenous", "conditions": "in vivo"}, "[9]": {"target": "T1, Metabotropic glutamate receptor 1", "assay": "Antagonist activity at human mGluR1 expressed in human Chem-3 cells assessed as inhibition of L-glutamate-induced calcium release at 10 uM by calcium-5 reagent-based fluorescence assay relative to control", "format": "functional, cell-based"}, "[10]": {"assay": "Plasma concentration in Sprague-Dawley rat at 10 mg/kg, iv measured at 8 hrs by LC-MS/MS analysis", "format": "ADME, organism-based", "set-up": "dose 10 mg/kg, route intravenous"}, "[11]": {"assay": "AUClast in Sprague-Dawley rat at 10 mg/kg, po by LC-MS/MS analysis", "format": "ADME, organism-based", "set-up": "time 0 - last, dose 10 mg/kg, route oral", "conditions": "plasma"}, "[12]": {"target": "Alpha-1A adrenergic receptor (Homo sapiens) (UniProt P35348)", "sequence (P35348 whole entry)": "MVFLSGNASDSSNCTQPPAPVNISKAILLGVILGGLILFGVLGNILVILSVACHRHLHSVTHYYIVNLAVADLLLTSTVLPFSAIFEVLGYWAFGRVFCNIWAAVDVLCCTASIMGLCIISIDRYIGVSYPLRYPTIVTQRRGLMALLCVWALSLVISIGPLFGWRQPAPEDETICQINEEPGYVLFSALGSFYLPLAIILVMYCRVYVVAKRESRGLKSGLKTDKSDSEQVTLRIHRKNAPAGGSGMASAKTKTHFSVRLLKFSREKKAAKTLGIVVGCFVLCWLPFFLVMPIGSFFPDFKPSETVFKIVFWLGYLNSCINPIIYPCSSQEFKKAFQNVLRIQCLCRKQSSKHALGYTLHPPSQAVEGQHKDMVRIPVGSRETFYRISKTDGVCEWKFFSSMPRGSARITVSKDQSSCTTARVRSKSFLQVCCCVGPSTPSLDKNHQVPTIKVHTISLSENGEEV", "assay": "Antagonist activity at ADRA1A (unknown origin) at 10 uM relative to control"}, "[13]": {"assay": "Plasma concentration in Sprague-Dawley rat at 10 mg/kg, po measured at 8 hrs by LC-MS/MS analysis", "format": "ADME, organism-based", "set-up": "dose 10 mg/kg, route oral"}, "CYP3A4": {"target": "CYP3A4 (Homo sapiens, UniProt P08684)", "sequence (P08684 whole entry)": "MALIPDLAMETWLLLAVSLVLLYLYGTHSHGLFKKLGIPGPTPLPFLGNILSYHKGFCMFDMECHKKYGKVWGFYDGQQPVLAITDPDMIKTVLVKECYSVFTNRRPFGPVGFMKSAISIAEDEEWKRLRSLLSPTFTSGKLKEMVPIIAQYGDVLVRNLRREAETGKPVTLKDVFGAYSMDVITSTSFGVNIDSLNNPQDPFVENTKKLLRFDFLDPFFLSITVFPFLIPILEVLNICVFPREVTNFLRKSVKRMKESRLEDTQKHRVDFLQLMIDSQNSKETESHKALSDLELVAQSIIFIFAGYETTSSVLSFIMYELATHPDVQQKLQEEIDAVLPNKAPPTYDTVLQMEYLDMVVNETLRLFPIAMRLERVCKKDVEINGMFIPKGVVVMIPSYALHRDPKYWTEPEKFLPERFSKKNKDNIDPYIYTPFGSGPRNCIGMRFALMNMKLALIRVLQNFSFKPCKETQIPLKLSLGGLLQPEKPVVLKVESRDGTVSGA", "assay": "Inhibition of recombinant human CYP3A4 assessed as remaining activity at 10 uM preincubated for 5 mins followed by substrate and NADP addition measured after 20 mins by fluorescence assay relative to control", "format": "ADME", "conditions": "read-out: Activity"}, "[14]": {"target": "5-hydroxytryptamine receptor 2A (Homo sapiens) (UniProt P28223)", "sequence (P28223 whole entry)": "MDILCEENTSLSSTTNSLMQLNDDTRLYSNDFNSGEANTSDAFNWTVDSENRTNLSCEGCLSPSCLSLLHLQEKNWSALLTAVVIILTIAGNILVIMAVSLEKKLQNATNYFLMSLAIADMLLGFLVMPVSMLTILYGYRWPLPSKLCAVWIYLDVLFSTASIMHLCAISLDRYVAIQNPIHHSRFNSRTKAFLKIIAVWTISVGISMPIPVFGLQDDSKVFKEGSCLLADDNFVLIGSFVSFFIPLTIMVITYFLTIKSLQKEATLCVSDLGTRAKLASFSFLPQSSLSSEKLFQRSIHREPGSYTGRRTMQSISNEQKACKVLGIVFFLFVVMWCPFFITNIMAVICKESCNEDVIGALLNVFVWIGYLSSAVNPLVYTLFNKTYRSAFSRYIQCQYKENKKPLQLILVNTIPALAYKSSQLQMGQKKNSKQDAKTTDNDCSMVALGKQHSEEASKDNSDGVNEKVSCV", "assay": "Antagonist activity at 5HT2A receptor (unknown origin) at 10 uM relative to control"}, "[15]": {"target": "Metabotropic glutamate receptor 5 (Homo sapiens, UniProt P41594)", "sequence (P41594 21-1212 limits assumed)": "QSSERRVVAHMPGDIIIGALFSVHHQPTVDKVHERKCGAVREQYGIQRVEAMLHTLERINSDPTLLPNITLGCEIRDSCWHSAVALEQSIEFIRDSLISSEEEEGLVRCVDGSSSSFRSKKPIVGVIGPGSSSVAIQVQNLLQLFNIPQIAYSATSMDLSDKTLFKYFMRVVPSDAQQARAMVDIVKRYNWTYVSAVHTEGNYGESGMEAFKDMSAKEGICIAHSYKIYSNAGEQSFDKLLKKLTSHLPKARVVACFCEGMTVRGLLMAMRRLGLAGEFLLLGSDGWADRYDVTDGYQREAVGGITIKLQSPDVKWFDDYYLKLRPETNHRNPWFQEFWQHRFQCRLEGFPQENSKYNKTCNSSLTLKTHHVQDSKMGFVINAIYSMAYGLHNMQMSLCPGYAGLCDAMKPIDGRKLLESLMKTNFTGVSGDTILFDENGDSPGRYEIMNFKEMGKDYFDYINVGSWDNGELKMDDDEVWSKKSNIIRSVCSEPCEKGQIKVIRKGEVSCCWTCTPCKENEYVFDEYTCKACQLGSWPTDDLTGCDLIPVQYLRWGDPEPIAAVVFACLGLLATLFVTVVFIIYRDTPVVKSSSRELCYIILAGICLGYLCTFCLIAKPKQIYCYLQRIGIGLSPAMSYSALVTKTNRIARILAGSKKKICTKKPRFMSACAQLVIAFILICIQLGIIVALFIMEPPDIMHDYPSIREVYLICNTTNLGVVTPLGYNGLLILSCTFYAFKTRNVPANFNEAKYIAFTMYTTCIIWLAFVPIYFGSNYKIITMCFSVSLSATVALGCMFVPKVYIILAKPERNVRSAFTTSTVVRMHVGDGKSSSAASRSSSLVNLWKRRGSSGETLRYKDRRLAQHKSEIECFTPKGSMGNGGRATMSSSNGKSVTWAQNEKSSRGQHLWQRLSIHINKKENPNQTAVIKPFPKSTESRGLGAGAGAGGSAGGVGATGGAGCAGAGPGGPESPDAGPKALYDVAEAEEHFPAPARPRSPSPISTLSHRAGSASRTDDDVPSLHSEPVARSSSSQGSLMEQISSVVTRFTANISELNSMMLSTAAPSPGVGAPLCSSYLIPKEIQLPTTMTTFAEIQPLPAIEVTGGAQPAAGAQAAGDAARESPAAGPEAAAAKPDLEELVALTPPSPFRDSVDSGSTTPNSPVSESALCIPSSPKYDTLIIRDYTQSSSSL", "assay": "Antagonist activity at human mGluR5 expressed in human embryonic kidney cells assessed as inhibition of L-glutamate-induced calcium release at 10 uM by calcium-5 reagent-based fluorescence assay relative to control", "format": "functional, cell-based"}, "[16]": {"assay": "Plasma concentration in Sprague-Dawley rat at 10 mg/kg, iv measured at 2 hrs by LC-MS/MS analysis", "format": "ADME, organism-based", "set-up": "dose 10 mg/kg, route intravenous"}, "[17]": {"target": "C-X-C chemokine receptor type 4 (Homo sapiens) (UniProt P61073)", "sequence (P61073 whole entry)": "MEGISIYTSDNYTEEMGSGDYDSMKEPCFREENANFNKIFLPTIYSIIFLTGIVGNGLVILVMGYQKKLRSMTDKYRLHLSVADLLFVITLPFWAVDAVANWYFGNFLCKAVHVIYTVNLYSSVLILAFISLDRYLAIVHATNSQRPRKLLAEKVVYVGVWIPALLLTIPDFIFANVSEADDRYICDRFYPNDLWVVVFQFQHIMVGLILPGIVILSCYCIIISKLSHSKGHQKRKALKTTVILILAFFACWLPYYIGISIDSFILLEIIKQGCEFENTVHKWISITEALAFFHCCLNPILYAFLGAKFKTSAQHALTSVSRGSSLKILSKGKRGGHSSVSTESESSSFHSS", "assay": "Agonist activity at CXCR4 (unknown origin) at 12.5 uM relative to control"}, "[18]": {"assay": "Total clearance in Sprague-Dawley rat at 10 mg/kg, iv by LC-MS/MS analysis", "format": "ADME, organism-based", "set-up": "dose 10 mg/kg, route intravenous", "conditions": "in vivo"}, "[19]": {"assay": "AUC (0 to infinity) in Sprague-Dawley rat at 10 mg/kg, iv by LC-MS/MS analysis", "format": "ADME, organism-based", "set-up": "time infinity, dose 10 mg/kg, route intravenous", "conditions": "plasma"}, "[20]": {"assay": "Ratio of drug level in brain to plasma in Sprague-Dawley rat at 10 mg/kg, po measured at 2 hrs by LC-MS/MS analysis", "format": "ADME, organism-based", "set-up": "dose 10 mg/kg, route oral", "conditions": "read-out: BPR"}, "[21]": {"target": "T1, Metabotropic glutamate receptor 1", "assay": "Antagonist activity at mGlu1 receptor (unknown origin) at 10 uM relative to control"}, "CYP1A2": {"target": "T2, CYP1A2 (Homo sapiens, UniProt P05177)", "T2 sequence (P05177 whole entry)": "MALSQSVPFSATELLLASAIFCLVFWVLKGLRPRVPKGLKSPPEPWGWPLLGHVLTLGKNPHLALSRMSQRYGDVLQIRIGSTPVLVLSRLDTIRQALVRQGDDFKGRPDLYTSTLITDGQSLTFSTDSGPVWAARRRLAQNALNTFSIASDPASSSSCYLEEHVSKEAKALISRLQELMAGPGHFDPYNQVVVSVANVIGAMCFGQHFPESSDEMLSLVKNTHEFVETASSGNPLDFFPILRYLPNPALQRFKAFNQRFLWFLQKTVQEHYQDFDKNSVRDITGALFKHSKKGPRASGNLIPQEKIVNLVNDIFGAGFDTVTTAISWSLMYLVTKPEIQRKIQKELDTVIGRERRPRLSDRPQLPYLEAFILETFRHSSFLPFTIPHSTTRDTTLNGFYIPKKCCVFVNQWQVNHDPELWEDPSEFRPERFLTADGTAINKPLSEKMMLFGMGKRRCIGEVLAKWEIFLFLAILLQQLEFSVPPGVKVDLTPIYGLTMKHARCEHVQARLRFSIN", "assay": "Inhibition of recombinant human CYP1A2 assessed as remaining activity at 10 uM preincubated for 5 mins followed by substrate and NADP addition measured after 20 mins by fluorescence assay relative to control", "format": "ADME", "conditions": "read-out: Activity"}, "[22]": {"target": "C-X-C chemokine receptor type 4 (Homo sapiens) (UniProt P61073)", "assay": "Antagonist activity at CXCR4 (unknown origin) at 10 uM relative to control"}, "[23]": {"target": "C-X-C chemokine receptor type 5 (Homo sapiens) (UniProt P32302)", "sequence (P32302 whole entry)": "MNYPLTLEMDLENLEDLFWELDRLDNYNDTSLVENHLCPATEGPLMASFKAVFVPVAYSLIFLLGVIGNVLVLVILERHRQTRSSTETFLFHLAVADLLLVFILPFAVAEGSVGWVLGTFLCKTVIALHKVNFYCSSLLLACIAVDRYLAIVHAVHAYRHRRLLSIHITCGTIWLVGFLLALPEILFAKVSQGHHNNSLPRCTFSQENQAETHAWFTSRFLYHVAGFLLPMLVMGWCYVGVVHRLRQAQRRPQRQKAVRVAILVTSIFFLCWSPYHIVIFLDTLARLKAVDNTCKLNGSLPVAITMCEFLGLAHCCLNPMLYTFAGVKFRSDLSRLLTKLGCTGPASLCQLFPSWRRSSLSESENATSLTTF", "assay": "Antagonist activity at CXCR5 (unknown origin) at 10 uM relative to control"}, "[24]": {"target": "Muscarinic acetylcholine receptor M1 (Homo sapiens) (UniProt P11229)", "assay": "Antagonist activity at M1 receptor (unknown origin) at 10 uM relative to control"}, "[25]": {"target": "Alpha-1A adrenergic receptor (Homo sapiens) (UniProt P35348)", "assay": "Agonist activity at ADRA1A (unknown origin) at 12.5 uM relative to control"}, "[26]": {"target": "C-X-C chemokine receptor type 2 (Homo sapiens) (UniProt P25025)", "assay": "Agonist activity at CXCR2 (unknown origin) at 12.5 uM relative to control"}, "[27]": {"assay": "Cmax in Sprague-Dawley rat at 10 mg/kg, po by LC-MS/MS analysis", "format": "ADME, organism-based", "set-up": "dose 10 mg/kg, route oral", "conditions": "in vivo"}, "[28]": {"target": "Substance-P receptor (Homo sapiens) (UniProt P25103)", "sequence (P25103 whole entry)": "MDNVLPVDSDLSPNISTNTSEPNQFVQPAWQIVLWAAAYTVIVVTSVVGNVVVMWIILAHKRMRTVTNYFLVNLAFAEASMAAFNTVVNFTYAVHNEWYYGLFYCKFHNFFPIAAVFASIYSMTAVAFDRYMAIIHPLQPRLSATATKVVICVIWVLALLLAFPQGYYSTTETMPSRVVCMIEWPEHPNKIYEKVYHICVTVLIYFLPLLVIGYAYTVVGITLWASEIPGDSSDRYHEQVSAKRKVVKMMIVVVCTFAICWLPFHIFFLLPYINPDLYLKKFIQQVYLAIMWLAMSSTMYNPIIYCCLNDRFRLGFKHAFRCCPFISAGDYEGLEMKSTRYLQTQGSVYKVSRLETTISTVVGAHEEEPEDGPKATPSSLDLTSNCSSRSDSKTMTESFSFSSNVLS", "assay": "Antagonist activity at NK1 receptor (unknown origin) at 10 uM relative to control"}},
  "data": [
    {"molecule": "Cc1cc(C(=O)N2CCc3c(sc(NCc4ccccc4)c3C#N)C2)[nH]n1", "values": [
      {"measurement": "Kp at 2 h", "setting": "[1]", "value": 0.14},
      {"measurement": "inhibition", "setting": "[2]", "value": 5.8, "unit": "%"},
      {"measurement": "IC50", "setting": "[3]", "value": 1420, "unit": "nM"},
      {"measurement": "Activity", "setting": "[4]", "value": -1.4, "unit": "%"},
      {"measurement": "Activity", "setting": "[5]", "value": 0.9, "unit": "%"},
      {"measurement": "half-life", "setting": "[6]", "value": 89, "unit": "min"},
      {"measurement": "inhibition", "setting": "[7]", "value": 7.7, "unit": "%"},
      {"measurement": "MRT", "setting": "[8]", "value": 1.31, "unit": "h"},
      {"measurement": "inhibition", "setting": "[9]", "value": 71.2, "unit": "%"},
      {"measurement": "concentration at 8 h", "setting": "[10]", "value": 80, "unit": "ng/mL"},
      {"measurement": "AUC(0-t)", "setting": "[11]", "value": 4090, "unit": "ng·h/mL"},
      {"measurement": "inhibition", "setting": "[12]", "value": 9.2, "unit": "%"},
      {"measurement": "concentration at 8 h", "setting": "[13]", "value": 70, "unit": "ng/mL"},
      {"measurement": "activity at 20 min, 10 µM", "setting": "CYP3A4", "value": 20.5, "unit": "%"},
      {"measurement": "inhibition", "setting": "[14]", "value": 36.2, "unit": "%"},
      {"measurement": "inhibition", "setting": "[15]", "value": 59.8, "unit": "%"},
      {"measurement": "concentration at 2 h", "setting": "[16]", "value": 1240, "unit": "ng/mL"},
      {"measurement": "Activity", "setting": "[17]", "value": -3.1, "unit": "%"},
      {"measurement": "clearance", "setting": "[18]", "value": 20.1, "unit": "mL/min/kg"},
      {"measurement": "AUC(0-inf)", "setting": "[19]", "value": 9270, "unit": "ng·h/mL"},
      {"measurement": "Kp at 2 h", "setting": "[20]", "value": 0.13},
      {"measurement": "inhibition", "setting": "[21]", "value": 104, "unit": "%"},
      {"measurement": "activity at 20 min, 10 µM", "setting": "CYP1A2", "value": 72.7, "unit": "%"},
      {"measurement": "inhibition", "setting": "[22]", "value": 3.9, "unit": "%"},
      {"measurement": "inhibition", "setting": "[23]", "value": 4.5, "unit": "%"},
      {"measurement": "inhibition", "setting": "[24]", "value": -0.6, "unit": "%"},
      {"measurement": "Activity", "setting": "[25]", "value": 0.3, "unit": "%"},
      {"measurement": "Activity", "setting": "[26]", "value": -0.9, "unit": "%"},
      {"measurement": "Cmax", "setting": "[27]", "value": 1410, "unit": "ng/mL"},
      {"measurement": "inhibition", "setting": "[28]", "value": -2.1, "unit": "%"}
    ]}
  ]
}
